What all share (type): cell-based
Data set [1] relates to Streptococcus pyogenes, ATCC 700294. The data set is described as follows: Minimal inhibitory concentration assay (microbroth dilution). Put shortly:
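Plates with two-fold compound dilution series in broth were incubated overnight, aerobically, at 37° C, following CLSI microdilution guidance.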

In data set [2] the test system is Bacillus subtilis, ATCC 23857. The description is as above. Put shortly: (§1)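 Compound is serially diluted two-fold in the appropriate broth, and bacterial inoculum at about 10^5 cfu/mL is added so the highest final concentration is 200 μM. Plates stay overnight at 37 °C under aerobic conditions before growth is scored by eye.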
Data set [3] relates to Staphylococcus aureus, ATCC 29213. The data set is described as above. The settings on record: ATCC29213, read-out: Minimal Inhibitory Concentrations S. aureus ATCC 29213. A digest of the protocol:
as §1

The test system of data set [4] is Staphylococcus aureus, NRS70. The description is as above. Put shortly: as §1
Data set [5] can be described thus: Cytotoxicity assay (CellTiter-Glo cell viability, 72 hours). The settings on record: African green monkey. Put shortly:
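Viability measured by CellTiter-Glo luminescence after 72-hour compound exposure (serial dilutions, DMSO control) of Vero monolayers seeded at 5000 cells/well in 10% FBS DMEM. IC50 values are the range of two biologically independent experiments, each run in duplicate.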
In general terms: ATP-based viability assays read luminescence as a measure of living cells.

Where [6] appears, read: Streptococcus pyogenes, ATCC700294; read-out: Minimal Inhibitory Concentrations S. pyogenes ATCC 700294.
Where [7] appears, read: Bacillus subtilis, ATCC23857; read-out: Minimal Inhibitory Concentrations B. subtilis ATCC 23857.
Setting [8] is: Staphylococcus aureus, NRS70; read-out: Minimal Inhibitory Concentrations S. aureus NRS70.

Converted amounts (≈) assume the structure as drawn. Where two headings read alike, the source gives them in different places. *1 amine or outer side, *2 acyl side, *3 side chain or, on linkers, in order; H or OH if unused. Where a SMILES comes first, the peptide text is derived from it. Bridges are numbered along the chain shown (N, C = ends). [ ]: non-standard residue; d: D form. The star is where a group is joined. ξ: configuration not given here. Phe(3,5-F2) = N[C@@H](Cc1cc(F)cc(F)c1)C(=O)O; NH(4-OCF3-phenyl) = FC(F)(F)Oc1ccc(N*)cc1; Pro(4S-Me) = C[C@@H]1CN[C@H](C(=O)O)C1; NH(4-Cl-2-F-phenyl) = Fc1cc(Cl)ccc1N*; Pro(4R-Me) = C[C@H]1CN[C@H](C(=O)O)C1; Hyp = O=C(O)[C@@H]1C[C@@H](O)CN1; NMeT = CN[C@H](C(=O)O)[C@@H](C)O; Heptenoyl(2E) = CCCC/C=C/C(=O)*; NH(4-Me-phenyl) = Cc1ccc(N*)cc1; aThr = C[C@H](O)[C@H](N)C(=O)O; Pip = O=C(O)[C@@H]1CCCCN1; NMeA = CN[C@@H](C)C(=O)O; CO = O=C([*:1])[*:2]; ξP = O=C(O)C1CCCN1

The term IC50 denotes the concentration that inhibits the measured activity by half.

With `C[C@@H]1NC(=O)[C@H](C)N(C)C(=O)[C@@H]2CCCN2C(=O)[C@@H](NC(=O)[C@H](Cc2ccccc2)NC(=O)Nc2ccc(OC(F)(F)F)cc2)COC(=O)C2CCCN2C1=O` (stereo partly drawn) [Compound 213, (2S)-3-phenyl-2-(3-(4-(trifluoromethoxy)phenyl)ureido)-N-((6S,9S,11aS,17S)-6,9,10-trimethyl-5,8,11,16,20-pentaoxohexadecahydro-1H,5H,16H-dipyrrolo[2,1-c:2′,1′-l][1]oxa[4,7,10,13]tetraazacyclohexadecin-17-yl)propanamide] ({NH(4-OCF3-phenyl)-CO}-FSP[NMeA]A[ξP]; ester 2-C), the MIC is 0.39 µM (≈ 0.307 µg/mL) in data set [1] (setting [6]), under 0.2 µM in data set [2] (setting [7]), 3.12 µM (≈ 2.46 µg/mL) in data set [3] and 0.78 µM (≈ 0.614 µg/mL) in data set [4] (setting [8]). Besides, in data set [5], the IC50 at 72 h came to 51.8 ± 1 µM.

In the case of `Cc1ccc(NC(=O)N[C@@H](Cc2cc(F)cc(F)c2)C(=O)N[C@@H]2C(=O)N3C[C@H](O)C[C@H]3C(=O)N(C)[C@@H](C)C(=O)N[C@@H](C)C(=O)N3C[C@@H](C)C[C@H]3C(=O)O[C@H]2C)cc1` [Compound 214, (S)-3-(3,5-difluorophenyl)-N-((2S,6S,9S,11aS,13R,17S,18S,20aS)-13-hydroxy-2,6,9,10,18-pentamethyl-5,8,11,16,20-pentaoxohexadecahydro-1H,5H,16H-dipyrrolo[2,1-c:2′,1′-l][1]oxa[4,7,10,13]tetraazacyclohexadecin-17-yl)-2-(3-(p-tolyl)ureido)propanamide] ({NH(4-Me-phenyl)-CO}-[Phe(3,5-F2)][aThr][Hyp][NMeA]A[Pro(4S-Me)]; ester 2-C), the MIC stood at 0.781 µM (≈ 0.623 µg/mL) in data set [1] (Streptococcus pyogenes, ATCC700294, read-out: Minimal Inhibitory Concentrations S. pyogenes ATCC 700294); 0.391 µM (≈ 0.312 µg/mL) in data set [2] (Bacillus subtilis, ATCC23857, read-out: Minimal Inhibitory Concentrations B. subtilis ATCC 23857); 0.391 µM (≈ 0.312 µg/mL) in data set [3]; 0.391 µM (≈ 0.312 µg/mL) in data set [4] (Staphylococcus aureus, NRS70, read-out: Minimal Inhibitory Concentrations S. aureus NRS70). The IC50 at 72 h in data set [5] (Vero cells, 72 hours, growth inhibition, read-out: Cytotoxicity IC50) was over 100 µM.

`C[C@@H]1C[C@H]2C(=O)O[C@@H](C)[C@H](NC(=O)[C@H](Cc3cc(F)cc(F)c3)NC(=O)Nc3ccc(Cl)cc3F)C(=O)N3CCC[C@H]3C(=O)N3CCCC[C@H]3C(=O)N[C@@H](C)C(=O)N2C1` [Compound 307, (S)-2-(3-(4-chloro-2-fluorophenyl)ureido)-3-(3,5-difluorophenyl)-N-((2R,6S,8aS,14aS,20S,21S,23aS)-2,6,21-trimethyl-5,8,14,19,23-pentaoxooctadecahydro-1H,5H,14H,19H-pyrido[2,1-i]dipyrrolo[2,1-c:2′,1′-l][1]oxa[4,7,10,13]tetraazacyclo-hexadecin-20-yl)propanamide] ({NH(4-Cl-2-F-phenyl)-CO}-[Phe(3,5-F2)][aThr]P[Pip]A[Pro(4R-Me)]; ester 2-C): the MIC in data set [1] (setting [6]) was found to be 0.156 µM (≈ 0.132 µg/mL); in data set [2] (setting [7]), 0.039 µM (≈ 0.033 µg/mL); in data set [3], 0.039 µM (≈ 0.033 µg/mL); in data set [4] (setting [8]), 0.039 µM (≈ 0.033 µg/mL). Further, the half-maximal inhibitory concentration (IC50) at 72 h in data set [5] came out at 9.5 ± 0.8 µM.

As for `CCCC/C=C/C(=O)N[C@@H](Cc1cc(F)cc(F)c1)C(=O)N[C@@H]1C(=O)N2CCC[C@H]2C(=O)N(C)[C@@H]([C@@H](C)O)C(=O)N[C@@H](C)C(=O)N2C[C@H](C)C[C@H]2C(=O)O[C@H]1C` [Compound 308, (E)-N—((S)-3-(3,5-difluorophenyl)-1-(((2R,6S,9S,11aS,17S,18S,20aS)-9-((R)-1-hydroxyethyl)-2,6,10,18-tetramethyl-5,8,11,16,20-pentaoxohexadecahydro-1H,5H,16H-dipyrrolo[2,1-c:2′,1′-l][1]oxa[4,7,10,13]tetraazacyclohexadecin-17-yl)amino)-1-oxopropan-2-yl)hept-2-enamide] ({Heptenoyl(2E)}-[Phe(3,5-F2)][aThr]P[NMeT]A[Pro(4R-Me)]; ester 2-C), the MIC in data set [1] (setting [6]) was under 0.02 µM; in data set [2] (setting [7]), under 0.02 µM; in data set [3], 0.039 µM (≈ 0.0308 µg/mL); in data set [4] (setting [8]) it was 0.039 µM (≈ 0.0308 µg/mL). Besides, the IC50 at 72 h in data set [5] came to 38.6 ± 1.1 µM.

(Values after patent publication US10457707B2, “Substituted urea depsipeptide analogs as activators of the CLPP endopeptidase” (priority 2015, dated 2019).)
